Experimental data: PMC5403950, “Mechanism Underlying the Reversal of Drug Resistance in P-Glycoprotein-Expressing Leukemia Cells by Pinoresinol and the Study of a Derivative” (Frontiers in Pharmacology, 2017)
Counter-ions that a name gives are not always drawn.

Assays:
K562 cells [1] = assay: Multidrug resistance reversal assay (MTT) with DOX, sensitive parental line; type: cell-based, human; details: for Effect on DOX sensitivity in K562: compound at highest non-toxic concentration (Table 1)
Description: (§1) Briefly, 5 × 10^4 Lucena 1 cells per well were seeded in 96-well plates containing RPMI-1640 medium in the presence of DOX alone or in combination with the tested compounds dissolved in ethanol or acetonitrile as appropriate. DOX was added to reach final concentrations of 0.05–431 μM. The compounds were assayed at the highest non-toxic concentration observed in both cell lines (cytotoxicity ≤ 20%, Cytotoxicity (%) = [1-(Optical density treatment-Optical density DMSO)/(Optical density control-Optical density DMSO)] x 100, determined by MTT proliferation assay (Joray et al., [2015]); maximum concentration tested 40 μg mL^−1). Following the primary screening, compounds 14 and 16 (dissolved in ethanol) were tested at serial dilutions. […] Subsequently, the supernatants were removed and replaced with 100 μL DMSO to solubilize the resulting purple formazan crystals produced from metabolically viable cells. Absorbance was measured with an iMark micro-plate reader (Bio-Rad, USA) at 595 nm.
(§2) The same reversal assay was performed in K562 cells, in order to discard a decrease in the IC50 of DOX due to effects other than P-gp inhibition. The reversal fold (RF) values for the tested compounds, which indicate their capacity to reduce resistance to DOX, were calculated by dividing the IC50 of DOX alone by the IC50 of DOX in the presence of the tested compounds (Xu et al., [2014]).

Lucena 1 cells [2] = assay: Reversal assay (MTT) with VLB; type: cell-based, human; details: Homo sapiens, VLB alone
Description: Subsequently, the supernatants were removed and replaced with 100 μL DMSO to solubilize the resulting purple formazan crystals produced from metabolically viable cells.
The same reversal assay was performed in K562 cells, in order to discard a decrease in the IC50 of DOX due to effects other than P-gp inhibition.

K562 cells [3] = assay: Reversal assay (MTT) with VLB, sensitive parental line; type: cell-based, human; details: Homo sapiens, VLB alone
K562 cells [4] = assay: Doxorubicin intracellular accumulation assay (flow cytometry), K562; type: cell-based, human; details: up to the maximum concentration evaluated
Text: […]. […] Viability controls were included in all the experiments.

Lucena 1 cells [5] = assay: Multidrug resistance reversal assay (MTT) with DOX; type: cell-based, human; details: for Effect on DOX toxicity in Lucena 1: compound at highest non-toxic concentration (Table 1)
Description: as §1, §2

[6] = system: KB-C2 cells overexpressing P-gp; design: method as in Nabekura et al., 2008; details: ref Nabekura et al., 2008; cited from earlier work
P-gp = system: P-gp; design: method as in Tamaki et al., 2008; details: applied at 50 and 100 μM; ref Tamaki et al., 2008; cited from earlier work

## O=C(/C=C/c1ccccc1)c1ccc(O)cc1O [Compound 6, 2′,4′-dihydroxychalcone]
K562 cells [1]
  Effect on DOX sensitivity in K562: caused a decrease in DOX IC50

## CC[C@]1(O)C[C@@H]2CN(CCc3c([nH]c4ccccc34)[C@@](C(=O)OC)(c3cc4c(cc3OC)N(C)[C@H]3[C@@](O)(C(=O)OC)[C@H](OC(C)=O)[C@]5(CC)C=CCN6CC[C@]43[C@@H]65)C2)C1 [VLB, vinblastine sulfate, reference compound]
Lucena 1 cells [2]
  IC50: 2490 nM
K562 cells [3]
  IC50: 240 nM

## COc1ccc(CCN(C)CCCC(C#N)(c2ccc(OC)c(OC)c2)C(C)C)cc1OC (stereo not shown) [Verapamil, Verapamil hydrochloride, reference compound]
K562 cells [4]
  DOX accumulation in K562: No such increase in MFI

## O=c1c(O)c(-c2ccc(O)c(O)c2)oc2cc(O)cc(O)c12 [Compound 11, quercetin]
Lucena 1 cells [5]
  Effect on DOX toxicity in Lucena 1: decreased DOX sensitivity

## COc1cccc2c1C(=O)c1c(O)c3c(c(O)c1C2=O)C[C@@](O)(C(=O)CO)C[C@@H]3O[C@H]1C[C@H](N)[C@H](O)[C@H](C)O1 [DOX, Doxorubicin hydrochloride, reference compound]
K562 cells [1]; Homo sapiens, K562, MTT 48 h, 95% confidence limits in brackets, read-out: IC50 of DOX alone
  IC50: 1160 nM
Lucena 1 cells [5]; Homo sapiens, Lucena 1, MTT 48 h, 95% confidence limits in brackets, read-out: IC50 of DOX alone
  IC50: 40800 nM
Lucena 1 cells [5]; ratio of DOX IC50 values
  Resistance of Lucena 1 to DOX relative to K562: 35 fold

## O=c1cc(-c2ccc(O)cc2)oc2cc(O)cc(O)c12 [Compound 10, apigenin]
Lucena 1 cells [5]
  Effect on DOX toxicity in Lucena 1: did not cause any effect in DOX toxicity

## CC1(C)C=Cc2c(cc3c(c2O)C(=O)CC(c2ccc(O)cc2O)O3)O1 (stereo not shown) [Compound 9, dalenin]
K562 cells [1]
  Effect on DOX sensitivity in K562: caused a decrease in DOX IC50

## (-)-sesamin
[6]
  Concentration from which accumulation of daunorubicin increased: 50 µM

## (+)-pinoresinol [14 (+)-pinoresinol]
P-gp
  Intracellular accumulation of calcein-AM: increased the intracellular accumulation of calcein-AM

## O=C1C[C@@H](c2ccc(O)cc2)Oc2cc(O)cc(O)c21 [Compound 8, naringenin]
Lucena 1 cells [5]
  Effect on DOX toxicity in Lucena 1: did not cause any effect in DOX toxicity
